The values that follow come from patent publication US8143393B2, “Substituted 4-amino-pyrrolotriazine derivatives useful for treating hyper-proliferative disorders and diseases associated with angiogenesis” (Bayer HealthCare LLC, priority 2005, dated 2012).

For one assay, the target named is T1, FGFR-1 (Homo sapiens, UniProt P11362).
T1 construct: GST; made in house
T1 sequence (P11362 22-822): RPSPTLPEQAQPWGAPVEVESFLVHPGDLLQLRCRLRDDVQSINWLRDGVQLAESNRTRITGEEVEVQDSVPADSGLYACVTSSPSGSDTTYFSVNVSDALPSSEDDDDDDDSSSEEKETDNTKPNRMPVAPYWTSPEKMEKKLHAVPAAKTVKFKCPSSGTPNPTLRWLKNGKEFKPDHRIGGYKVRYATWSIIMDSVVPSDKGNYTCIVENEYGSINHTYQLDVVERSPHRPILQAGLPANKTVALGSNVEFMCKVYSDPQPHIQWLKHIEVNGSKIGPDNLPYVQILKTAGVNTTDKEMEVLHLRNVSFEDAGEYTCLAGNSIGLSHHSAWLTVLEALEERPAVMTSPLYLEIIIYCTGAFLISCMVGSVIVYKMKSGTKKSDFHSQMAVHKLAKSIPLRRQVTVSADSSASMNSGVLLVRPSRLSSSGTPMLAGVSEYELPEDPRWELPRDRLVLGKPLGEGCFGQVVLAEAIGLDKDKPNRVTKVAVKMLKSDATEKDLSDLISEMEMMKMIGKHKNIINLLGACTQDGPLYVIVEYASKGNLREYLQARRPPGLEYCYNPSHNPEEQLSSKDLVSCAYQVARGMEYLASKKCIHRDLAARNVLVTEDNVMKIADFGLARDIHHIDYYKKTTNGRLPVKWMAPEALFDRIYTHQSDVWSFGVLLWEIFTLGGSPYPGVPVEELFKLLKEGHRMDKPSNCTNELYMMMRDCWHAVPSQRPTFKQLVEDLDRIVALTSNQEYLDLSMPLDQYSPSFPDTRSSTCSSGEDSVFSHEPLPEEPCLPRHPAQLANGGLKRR
Nature of the assay: FGFR-1 TR-FRET biochemical assay. As to conditions: 0.6 uM ATP, 5 nM FGFR1-GST; bounds given in nM. The method, then:
FGFR-1TR-FRET Biochemical Assay
The FGFR-1 Assay was performed on half well 96-well opaque plates (Costar 3915) in a LANCE format. LANCE is a homogenous time resolved fluormetry based application available through Perkin Elmer. For this assay, 50 uL reactions were set up using: 0.6 uM ATP (Sigma), 25 nM poly GT-biotin (CIS BIO International), 2 nM Eu-labelled phospho-Tyr Ab (PY20 PerkinElmer), 10 nM Streptavidin-APC (Perkin Elmer), 5 nM FGFR1-GST (generated by DRT, Bayer Healthcare), 1% DMSO, 50 mM HEPES pH 7.5, 10 mM MgCl2, 0.1 mM EDTA, 0.015% Brij, 0.1 mg/ml BSA, 0.1% B-mercaptoethanol. All reactions were initiated with the addition of enzyme and were left to incubate for one hour at room temperature. Time-resolved fluorescence was then read on a Perkin Elmer VictorV Multilabel counter. The reading protocol uses an excitation wavelength at 340 nm and emission reads at both 615 and 665 nm. Signal was calculated as a ratio: (Flourescence at 665 nm/Flourescence at 615 nM)*10000 for each well. The background control used for this assay is the signal produced with all assay components excluding ATP. For IC50 generation, compounds were added prior to the enzyme initiation. A 50-fold stock plate was made with compounds serially diluted 1:5 in a 50% DMSO/50% dH2O solution. A 1 μL addition of the stock to the assay wells gave final compound concentrations ranging from 10 μM-0.128 nM in 1% DMSO. The data were expressed as percent inhibition: % inhibition=100−((Signal with inhibitor−background)/(Signal without inhibitor−background))*100.
In general terms: In TR-FRET formats the signal depends on donor and acceptor labels being close together.
As to `CC(=O)N1CCN(Cc2cc(-c3ccc(NC(=O)Nc4cc(C(F)(F)F)ccc4F)c(F)c3)c3c(N)ncnn23)CC1` [Example 89, N-(4-{7-[(4-acetylpiperazin-1-yl)methyl]-4-aminopyrrolo[2,1-f][1,2,4]triazin-5-yl}-2-fluorophenyl)-N′-[2-fluoro-5-(trifluoromethyl)phenyl]urea], the IC50 – broadly, the concentration that gives 50% inhibition – is less than 10 nM.

In turn, `CC(=O)c1cc(-c2ccc(NC(=O)Nc3cc(C(F)(F)F)ccc3F)cc2)c2c(N)ncnn12` [Example 100, N-[4-(7-acetyl-4-aminopyrrolo[2,1-f][1,2,4]triazin-5-yl)phenyl]-N′-[2-fluoro-5-(trifluoromethyl)phenyl]urea] returned an IC50 of 10 to 100 nM.

As to `Nc1ncnn2c(C(=O)CN3CCOCC3)cc(-c3ccc(NC(=O)Nc4cc(C(F)(F)F)ccc4F)cc3)c12` [Example 103, N-{4-[4-amino-7-(morpholin-4-ylacetyl)pyrrolo[2,1-f][1,2,4]triazin-5-yl]phenyl}-N′-[2-fluoro-5-(trifluoromethyl)-phenyl]urea], the IC50 fell in the range of 10 to 100 nM.

Molecule `CC(C)(O)c1cc(-c2ccc(NC(=O)Nc3cc(C(F)(F)F)ccc3F)cc2)c2c(N)ncnn12` [Example 104, N-{4-[4-amino-7-(1-hydroxy-1-methylethyl)pyrrolo[2,1-f][1,2,4]triazin-5-yl]phenyl}-N′-[2-fluoro-5-(trifluoromethyl)phenyl]urea] gave an IC50 of 10 to 100 nM.

`Nc1ncnn2c(CCCN3CCOCC3)cc(-c3ccc(NC(=O)Nc4cc(C(F)(F)F)ccn4)cc3)c12` [Example 107, N-{4-[4-amino-7-(3-morpholin-4-ylpropyl)pyrrolo[2,1-f][1,2,4]triazin-5-yl]phenyl}-N′-[4-(trifluoromethyl)pyridin-2-yl]urea] had an IC50 of less than 10 nM.

`Nc1ncnn2c(CCCN3CCOCC3)cc(-c3ccc(NC(=O)Nc4cc(C(F)(F)F)ccc4F)cc3)c12` [Example 108, N-{4-[4-amino-7-(3-morpholin-4-ylpropyl)pyrrolo[2,1-f][1,2,4]triazin-5-yl]phenyl}-N′-[2-fluoro-5-(trifluoromethyl)phenyl]urea] had an IC50 of less than 10 nM.

`Nc1ncnn2c(CCCN3CCOCC3)cc(-c3ccc(NC(=O)Nc4cc(C(F)(F)F)ccc4F)c(F)c3)c12` [Example 109, N-{4-[4-amino-7-(3-morpholin-4-ylpropyl)pyrrolo[2,1-f][1,2,4]triazin-5-yl]-2-fluorophenyl}-N′-[2-fluoro-5-(trifluoromethyl)phenyl]urea] displayed an IC50 of less than 10 nM.

For the molecule `Nc1ncnn2c(C3CCNCC3)cc(-c3ccc(NC(=O)Nc4cc(C(F)(F)F)ccc4F)c(F)c3)c12` [Example 111, N-[4-(4-amino-7-piperidin-4-ylpyrrolo[2,1-f][1,2,4]-triazin-5-yl)-2-fluorophenyl]-N′-[2-fluoro-5-(trifluoromethyl)phenyl]urea], the IC50 is less than 10 nM.

`Nc1ncnn2c(C3CCN(C(=O)C(F)(F)F)CC3)cc(-c3ccc(NC(=O)Nc4cc(C(F)(F)F)ccc4F)c(F)c3)c12` [Example 112, N-(4-4-amino-7-[1-(trifluoroacetyl)piperidin-4-yl]pyrrolo[2,1-f][1,2,4]triazin-5-yl-2-fluorophenyl)-N′-[2-fluoro-5-(trifluoromethyl)-phenyl]urea] had an IC50 greater than 100 nM.

`CN1CCC(c2cc(-c3ccc(NC(=O)Nc4cc(C(F)(F)F)ccc4F)c(F)c3)c3c(N)ncnn23)CC1` [Example 113, N-4-[4-amino-7-(1-methylpiperidin-4-yl)pyrrolo[2,1-f][1,2,4]triazin-5-yl]-2-fluorophenyl-N′-[2-fluoro-5-(trifluoromethyl)phenyl]urea] gave an IC50 of less than 10 nM.

Turning to `Nc1ncnn2c(C3CCN(C(=O)CO)CC3)cc(-c3ccc(NC(=O)Nc4cc(C(F)(F)F)ccc4F)c(F)c3)c12` [Example 114, N-4-[4-amino-7-(1-glycoloylpiperidin-4-yl)pyrrolo[2,1-f][1,2,4]triazin-5-yl]-2-fluorophenyl-N′-[2-fluoro-5-(trifluoromethyl)phenyl]urea], the IC50 is less than 10 nM.

As to `Nc1ncnn2c(C3CCN(C(=O)CN4CCOCC4)CC3)cc(-c3ccc(NC(=O)Nc4cc(C(F)(F)F)ccc4F)c(F)c3)c12` [Example 115, N-(4-4-amino-7-[1-(morpholin-4-ylacetyl)piperidin-4-yl]pyrrolo[2,1-f][1,2,4]triazin-5-yl-2-fluorophenyl)-N′-[2-fluoro-5-(trifluoromethyl)-phenyl]urea], the IC50 is 10 to 100 nM.

Turning to `Nc1ncnn2c(C3CCN(CCO)CC3)cc(-c3ccc(NC(=O)Nc4cc(C(F)(F)F)ccc4F)c(F)c3)c12` [Example 116, N-(4-4-amino-7-[1-(2-hydroxyethyl)piperidin-4-yl]pyrrolo[2,1-f][1,2,4]triazin-5-yl-2-fluorophenyl)-N′-[2-fluoro-5-(trifluoromethyl)phenyl]urea], the IC50 is less than 10 nM.

`Nc1ncnn2c(C3CCN(CC(=O)O)CC3)cc(-c3ccc(NC(=O)Nc4cc(C(F)(F)F)ccc4F)c(F)c3)c12` [Example 119, [4-(4-amino-5-3-fluoro-4-[([2-fluoro-5-(trifluoromethyl)-phenyl]aminocarbonyl)amino]phenylpyrrolo[2,1-f][1,2,4]triazin-7-yl)piperidin-1-yl]acetic acid] gave an IC50 of less than 10 nM.

`CNC(=O)CN1CCC(c2cc(-c3ccc(NC(=O)Nc4cc(C(F)(F)F)ccc4F)c(F)c3)c3c(N)ncnn23)CC1` [Example 120, 2-[4-(4-amino-5-3-fluoro-4-[([2-fluoro-5-(trifluoromethyl)phenyl]aminocarbonyl)amino]phenylpyrrolo[2,1-f][1,2,4]triazin-7-yl)piperidin-1-yl]-N-methylacetamide] showed an IC50 of less than 10 nM.

Take `Nc1ncnn2c(C3CCN(CC(O)CO)CC3)cc(-c3ccc(NC(=O)Nc4cc(C(F)(F)F)ccc4F)c(F)c3)c12` (centres unmarked) [Example 121, N-(4-4-amino-7-[1-(2,3-dihydroxypropyl)piperidin-4-yl]pyrrolo[2,1-f][1,2,4]triazin-5-yl-2-fluorophenyl)-N′-[2-fluoro-5-(trifluoromethyl)-phenyl]urea]: the IC50 is less than 10 nM.

In the case of `CC(C)(C)NC(=O)N1CCC(c2cc(-c3ccc(NC(=O)Nc4cc(C(F)(F)F)ccn4)c(F)c3)c3c(N)ncnn23)CC1` [Example 124, 4-4-amino-5-[3-fluoro-4-([4-(trifluoromethyl)pyridin-2-yl]carbamoylamino)phenyl]pyrrolo[2,1-f][1,2,4]triazin-7-yl-N-tert-butylpiperidine-1-carboxamide], the IC50 fell in the range of 10 to 100 nM.

With `Nc1ncnn2c(CN3CCOCC3)cc(-c3ccc(NC(=O)Nc4cc(C(F)(F)F)ccc4F)c(Cl)c3)c12` [Example 128, N-4-[4-amino-7-(morpholin-4-ylmethyl)pyrrolo[2,1-f][1,2,4]triazin-5-yl]-2-chlorophenyl-N′-[2-fluoro-5-(trifluoromethyl)phenyl]urea], the IC50 was less than 10 nM.

The molecule `Nc1ncnn2c(CN3CCOCC3)cc(-c3ccc(NC(=O)Nc4cc(C(F)(F)F)ccn4)c(Cl)c3)c12` [Example 129, N-4-[4-amino-7-(morpholin-4-ylmethyl)pyrrolo[2,1-f][1,2,4]triazin-5-yl]-2-chlorophenyl-N′-[4-(trifluoromethyl)pyridin-2-yl]urea] returned an IC50 of less than 10 nM.

Molecule `Cc1ccnc(NC(=O)Nc2ccc(-c3cc(CN4CCOCC4)n4ncnc(N)c34)cc2Cl)c1` [Example 133, N-4-[4-amino-7-(morpholin-4-ylmethyl)pyrrolo[2,1-f][1,2,4]triazin-5-yl]-2-chlorophenyl-N′-(4-methylpyridin-2-yl)urea] showed an IC50 of 10 to 100 nM.

In turn, `Cc1cc(NC(=O)Nc2cc(C(F)(F)F)ccc2F)c(F)cc1-c1cc(CN2CCOCC2)n2ncnc(N)c12` [Example 136, N-{4-[4-amino-7-(morpholin-4-ylmethyl)pyrrolo[2,1-f][1,2,4]triazin-5-yl]-2-fluoro-5-methylphenyl}-N′-[2-fluoro-5(trifluoromethyl)-phenyl]urea] yielded an IC50 of 10 to 100 nM.

`Cc1ccc(F)c(NC(=O)Nc2cc(F)c(-c3cc(CN4CCOCC4)n4ncnc(N)c34)cc2F)c1` [Example 145, N-{4-[4-amino-7-(morpholin-4-ylmethyl)pyrrolo[2,1-f][1,2,4]triazin-5-yl]-2,5-difluorophenyl}-N′-(2-fluoro-5-methylphenyl)urea] registered an IC50 of 10 to 100 nM.

On to `Cc1cc(NC(=O)Nc2cc(C(F)(F)F)ccc2Cl)c(F)cc1-c1cc(CN2CCOCC2)n2ncnc(N)c12` [Example 147, N-{4-[4-amino-7-(morpholin-4-ylmethyl)pyrrolo[2,1-f][1,2,4]triazin-5-yl]-2-fluoro-5-methylphenyl}-N′-[2-chloro-5-(trifluoromethyl)phenyl]urea], for which the IC50 was greater than 100 nM.

Take `Cc1ccc(F)c(NC(=O)Nc2ccc(-c3cc(CN4CCOCC4)n4ncnc(N)c34)cc2F)c1` [Example 149, N-{4-[4-amino-7-(morpholin-4-ylmethyl)pyrrolo[2,1-f][1,2,4]triazin-5-yl]-2-fluorophenyl}-N′-(2-fluoro-5-methylphenyl)urea]: the IC50 was less than 10 nM.

Staying with this assay, now noted: upper bound of the bin 'greater than 100 nM but less than 1 μM' (lower bound in E1).
`Nc1ncnn2c(C3CCN(C(=O)C(F)(F)F)CC3)cc(-c3ccc(NC(=O)Nc4cc(C(F)(F)F)ccc4F)c(F)c3)c12` [Example 112, N-(4-4-amino-7-[1-(trifluoroacetyl)piperidin-4-yl]pyrrolo[2,1-f][1,2,4]triazin-5-yl-2-fluorophenyl)-N′-[2-fluoro-5-(trifluoromethyl)-phenyl]urea] had a concentration for half-maximal inhibition (IC50) of less than 1000 nM.

For `Cc1cc(NC(=O)Nc2cc(C(F)(F)F)ccc2Cl)c(F)cc1-c1cc(CN2CCOCC2)n2ncnc(N)c12` [Example 147, N-{4-[4-amino-7-(morpholin-4-ylmethyl)pyrrolo[2,1-f][1,2,4]triazin-5-yl]-2-fluoro-5-methylphenyl}-N′-[2-chloro-5-(trifluoromethyl)phenyl]urea], the IC50 was less than 1000 nM.
